Experimental data published in patent US20180305329A1, “XANTHINE COMPOUND AND USE THEREOF” (SUMITOMO CHEMICAL COMPANY, LIMITED, priority 2015, published 2018).

Assays:
[1] = Spectroscopic properties: quantum efficiency (QE-1100); type: physicochemical; conditions: fluorescence
Description: Quantum Efficiency (QE): QE-1100 (Otsuka Electronics Co., Ltd.)

human and rat CYP3A = assay: Molecular species selectivity evaluation, overall conclusion; type: in vitro ADME; conditions: conclusion from Tables 2 and 3
Description: (§1) A 100 mM phosphate buffer solution (pH 7.4) containing 3 μM of the compound (2) synthesized according to Example 2, 1 mM of NADPH (Wako Pure Chemical Industries, Ltd.) and 0.1% of DMSO was prepared. In each of the wells of a 96-well plate, 2 μL of each microsome from recombinant insect cell expressing different type of molecular species of CYP (CYP 2 pmol, BD Supersomes™, Nippon BD) was placed, followed by addition of 198 μL of the above-described phosphate buffer solution to start the reaction, which was incubated at 37° C. for 20 minutes. The reaction was stopped by adding 100 μL of acetonitrile (Nacalai Tesque, Inc.), and the fluorescence intensity of the obtained reaction solution was measured at the fluorescence wavelength of 520 nm with an excitation wavelength of 482 nm. A calibration curve was prepared by using the 0 μM, 0.01 μM, 0.05 μM, 0.1 μM, 0.50 μM and 1 μM solutions (100 mM phosphate buffer/acetonitrile=2/1) of the compound (1).

rat CYP3A2 = molecular target: T1, rat CYP3A2 (Rattus norvegicus, UniProt P05183); assay: Metabolism test with recombinant CYP microsomes (molecular species selectivity); type: in vitro ADME; conditions: rat CYP3A2 Supersomes, CYP 2 pmol; 3 μM compound (2); 1 mM NADPH; pH 7.4; 37° C., 20 minutes; mean ± SD
T1 construct: purchased Nippon BD (BD Supersomes); host or cells: recombinant insect cells (microsomes)
T1 sequence (P05183 1-504): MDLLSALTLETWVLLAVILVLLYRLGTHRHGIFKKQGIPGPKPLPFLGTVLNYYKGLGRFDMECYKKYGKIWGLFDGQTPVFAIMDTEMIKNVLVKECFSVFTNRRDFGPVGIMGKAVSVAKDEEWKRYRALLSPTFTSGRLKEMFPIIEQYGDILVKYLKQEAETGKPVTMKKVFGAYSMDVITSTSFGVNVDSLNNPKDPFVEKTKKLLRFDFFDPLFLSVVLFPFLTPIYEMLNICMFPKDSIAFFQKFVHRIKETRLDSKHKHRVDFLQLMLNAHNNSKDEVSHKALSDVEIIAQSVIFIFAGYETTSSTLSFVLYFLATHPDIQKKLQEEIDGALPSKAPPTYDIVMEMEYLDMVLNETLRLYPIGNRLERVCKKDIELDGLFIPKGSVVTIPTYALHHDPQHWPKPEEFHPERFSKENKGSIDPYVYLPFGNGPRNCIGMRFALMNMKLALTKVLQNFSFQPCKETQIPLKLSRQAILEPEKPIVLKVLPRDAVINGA
Description: as §1

human CYP2E1 = molecular target: T2, human CYP2E1 (Homo sapiens, UniProt P05181); assay: as above; type: in vitro ADME; conditions: human CYP2E1 Supersomes, CYP 2 pmol; 3 μM compound (2); 1 mM NADPH; pH 7.4; 37° C., 20 minutes; mean ± SD
T2 construct: purchased Nippon BD (BD Supersomes); host or cells: recombinant insect cells (microsomes)
T2 sequence (P05181 whole entry): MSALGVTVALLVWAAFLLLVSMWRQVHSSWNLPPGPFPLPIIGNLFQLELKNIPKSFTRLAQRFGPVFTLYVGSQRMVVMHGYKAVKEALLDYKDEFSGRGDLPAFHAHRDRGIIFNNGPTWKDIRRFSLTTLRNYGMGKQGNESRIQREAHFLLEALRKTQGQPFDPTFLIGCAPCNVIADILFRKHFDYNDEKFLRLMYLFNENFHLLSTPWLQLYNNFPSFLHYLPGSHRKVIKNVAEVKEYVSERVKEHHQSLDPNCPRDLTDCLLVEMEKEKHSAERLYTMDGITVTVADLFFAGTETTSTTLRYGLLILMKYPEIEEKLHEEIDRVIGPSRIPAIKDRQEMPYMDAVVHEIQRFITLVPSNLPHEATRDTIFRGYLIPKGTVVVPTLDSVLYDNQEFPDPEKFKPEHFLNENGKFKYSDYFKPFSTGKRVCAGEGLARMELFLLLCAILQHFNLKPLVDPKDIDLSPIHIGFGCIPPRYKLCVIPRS
Description: as §1

human CYP3A4 = molecular target: T3, human CYP3A4 (Homo sapiens, UniProt P08684); assay: as above; type: in vitro ADME; conditions: human CYP3A4 Supersomes, CYP 2 pmol; 3 μM compound (2); 1 mM NADPH; pH 7.4; 37° C., 20 minutes; mean ± SD
T3 construct: purchased Nippon BD (BD Supersomes); host or cells: recombinant insect cells (microsomes)
T3 sequence (P08684 whole entry): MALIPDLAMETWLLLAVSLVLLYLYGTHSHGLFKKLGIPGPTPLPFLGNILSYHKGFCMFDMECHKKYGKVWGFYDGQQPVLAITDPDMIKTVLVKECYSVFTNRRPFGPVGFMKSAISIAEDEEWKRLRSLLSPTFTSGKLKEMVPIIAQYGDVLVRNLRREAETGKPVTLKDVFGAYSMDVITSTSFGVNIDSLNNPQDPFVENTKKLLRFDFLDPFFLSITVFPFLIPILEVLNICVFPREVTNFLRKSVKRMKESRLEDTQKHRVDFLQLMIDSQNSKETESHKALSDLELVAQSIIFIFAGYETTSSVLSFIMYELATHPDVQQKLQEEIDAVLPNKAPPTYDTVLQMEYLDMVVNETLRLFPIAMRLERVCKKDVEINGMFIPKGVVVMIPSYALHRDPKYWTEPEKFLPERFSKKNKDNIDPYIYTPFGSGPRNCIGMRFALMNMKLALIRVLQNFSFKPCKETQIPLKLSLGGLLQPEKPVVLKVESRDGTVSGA
Description: as §1

rat CYP2D1 = molecular target: T4, rat CYP2D1 (Rattus norvegicus, UniProt P10633); assay: as above; type: in vitro ADME; conditions: rat CYP2D1 Supersomes, CYP 2 pmol; 3 μM compound (2); 1 mM NADPH; pH 7.4; 37° C., 20 minutes; mean ± SD
T4 construct: purchased Nippon BD (BD Supersomes); host or cells: recombinant insect cells (microsomes)
T4 sequence (P10633 1-504): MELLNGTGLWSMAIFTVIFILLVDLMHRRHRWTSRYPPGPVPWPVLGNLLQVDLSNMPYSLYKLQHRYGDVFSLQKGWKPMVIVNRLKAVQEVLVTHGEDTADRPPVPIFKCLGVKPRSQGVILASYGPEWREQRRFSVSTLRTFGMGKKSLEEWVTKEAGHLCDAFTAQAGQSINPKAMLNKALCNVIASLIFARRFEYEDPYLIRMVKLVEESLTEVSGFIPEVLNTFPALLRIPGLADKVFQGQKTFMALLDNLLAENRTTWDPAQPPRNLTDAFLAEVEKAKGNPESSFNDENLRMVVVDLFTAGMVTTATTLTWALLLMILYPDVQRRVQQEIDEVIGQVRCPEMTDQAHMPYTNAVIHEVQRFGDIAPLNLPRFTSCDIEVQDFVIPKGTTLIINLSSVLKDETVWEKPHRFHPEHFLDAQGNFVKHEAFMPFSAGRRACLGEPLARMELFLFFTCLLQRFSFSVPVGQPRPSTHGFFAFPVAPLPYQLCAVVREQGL
Description: as §1

rat CYP3A1 = molecular target: T5, rat CYP3A1 (Rattus norvegicus, UniProt P04800); assay: as above; type: in vitro ADME; conditions: rat CYP3A1 Supersomes, CYP 2 pmol; 3 μM compound (2); 1 mM NADPH; pH 7.4; 37° C., 20 minutes; mean ± SD
T5 construct: purchased Nippon BD (BD Supersomes); host or cells: recombinant insect cells (microsomes)
T5 sequence (P04800 1-504): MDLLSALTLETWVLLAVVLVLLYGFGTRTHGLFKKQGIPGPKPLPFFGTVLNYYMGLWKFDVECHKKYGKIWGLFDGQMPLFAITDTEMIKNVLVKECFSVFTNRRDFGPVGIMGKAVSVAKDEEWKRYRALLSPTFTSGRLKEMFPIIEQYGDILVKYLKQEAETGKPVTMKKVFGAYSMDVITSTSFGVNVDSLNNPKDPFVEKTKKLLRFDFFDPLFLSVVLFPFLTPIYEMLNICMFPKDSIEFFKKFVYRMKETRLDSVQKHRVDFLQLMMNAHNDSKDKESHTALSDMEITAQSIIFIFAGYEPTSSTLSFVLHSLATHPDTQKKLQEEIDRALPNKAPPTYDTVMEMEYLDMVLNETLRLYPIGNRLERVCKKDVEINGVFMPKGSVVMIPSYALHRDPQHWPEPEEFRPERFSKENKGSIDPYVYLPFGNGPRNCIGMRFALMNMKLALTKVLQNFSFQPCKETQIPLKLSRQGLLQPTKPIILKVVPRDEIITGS
Description: as §1

| Quantum Efficiency [1] [%] | amount of the compound (1) produced by reacting the compound (2) with CYP (rat CYP3A2) | amount of the compound (1) produced by reacting the compound (2) with CYP (human CYP2E1) | amount of the compound (1) produced by reacting the compound (2) with CYP (human CYP3A4) | amount of the compound (1) produced by reacting the compound (2) with CYP (rat CYP2D1) | amount of the compound (1) produced by reacting the compound (2) with CYP (rat CYP3A1) | Structure (SMILES) | CYP molecular species selectivity as substrate (human and rat CYP3A) |
| --- | --- | --- | --- | --- | --- | --- | --- |
| 85.3 |  |  |  |  |  | COc1ccc(-c2c3ccc(=O)cc-3oc3cc(O)ccc23)c(C)c1 [Compound (1), 6-hydroxy-9-(4-methoxy-2-methylphenyl)-3H-xanthen-3-one] |  |
| 20.6 | 0.0912 ± 0.0105 (3) pmol/min/mg protein | 0.0038 ± 0.0052 (3) pmol/min/mg protein | 2.4913 ± 0.0497 (3) pmol/min/mg protein | 0.0151 ± 0.0081 (3) pmol/min/mg protein | 0.2190 ± 0.0095 (3) pmol/min/mg protein | COc1ccc(-c2c3ccc(=O)cc-3oc3cc(OCc4cc(C(F)(F)F)ccc4C(F)(F)F)ccc23)c(C)c1 [Compound (2), 9-(4-methoxy-2-methylphenyl)-6-bis(2,5-trifluoromethyl)benzyloxy-3H-xanthen-3-one] | substrate specific to human and rat CYP3A |
